Data reported in patent publication US20090162329A1, “COMPOSITIONS COMPRISING HDAC INHIBITORS AND METHODS OF THEIR USE IN RESTORING STEM CELL FUNCTION AND PREVENTING HEART FAILURE” (priority 2007, published 2009).
“Also recorded” adds a separate entry of the source.

Key:
[1] = tested on: DNA methyltransferases; conditions: ECs and non-EC types; cited from earlier work
[2] = tested on: ESCs; assay: Effect of HDAC inhibitors on ESC differentiation after LIF removal (FIG. 23); assay type: cell-based, mouse; conditions: following LIF removal
Source text: FIG. 23. Effect of HDAC inhibitors on ESC differentiation. […] DAPI, blue.

[3] = tested on: class I and II HDAC; conditions: cited from earlier work
[4] = tested on: histone H3; assay: Histone H3 methylation in ESCs by Western blotting (FIG. 15); assay type: cell-based; conditions: mouse ESCs, loading by histone H1
Procedure: FIG. 15. Histone methylation in VPCs, MPCs and ESCs. A: H3K79me2 is present in MPCs and absent in VPCs. B: Shear stress (SS) induces a 4-5-fold increase in H3K79me2 in mouse ESCs. […] Equal loading is determined on the basis of histone H1.
Western blotting. Genome-wide methylation and acetylation of histone 3 and histone 4 are analyzed. Protein lysates are obtained with Laemmli buffer containing β-mercaptoethanol. Proteins are separated on 15% SDS-PAGE, transferred onto nitrocellulose and exposed to specific antibodies against different histone modifications (H3K9me2/3, H3K27me3, H3K4me2/3, H3K79me3, H4K20me2, H4K5Ac, H4K8Ac, H4K12Ac, H4K16Ac, H3K9Ac, H3K14Ac). Loading conditions are determined by β-actin expression (6, 7, 58, 59). In a similar manner, HDAC expression is quantified in total cell lysates and in nuclear and cytoplasmic lysates (249, 250).

[5] = tested on: myocardial hypertrophy; conditions: following pressure overload; cited from earlier work
[6] = tested on: HDAC; conditions: mouse ESCs, nuclear HDAC activity
Procedure: E: The activity of HDAC was measured by employing acetylated H4 as substrate.

Row | SMILES | eNOS mRNA [1] | differentiation of ESCs into cardiovascular lineages / cardiac cell phenotypes (flk1, CD31, SM22, α-SA) [2] | neuronal differentiation of ESCs (nestin expression) [2] | cell cycle arrest and differentiation [3] | overall methylation level of histone H3 [4] | myocardial hypertrophy [5] | increase of HDAC activity early after LIF depletion [6]
1 | Nc1ncn([C@@H]2O[C@H](CO)[C@@H](O)[C@H]2O)c(=O)n1 [5-azacytidine] | induces the upregulation of eNOS mRNA |  |  |  |  |  | 
2 | Cn1c(/C=C/C(=O)NO)ccc1/C=C/C(=O)c1cccc(F)c1 [MC1568] |  | inhibits the cardiac commitment of ESCs | favors neuronal differentiation; also recorded: selective expression of nestin |  |  |  | 
3 | Nc1ccccc1NC(=O)c1ccc(CNC(=O)OCc2cccnc2)cc1 [MS27-275] |  | triggers differentiation of ESCs to cardiac cell phenotypes; also recorded: promotes the preferential differentiation of ESCs into cardiovascular lineages | opposes neuronal commitment |  |  |  | 
4 | CC(/C=C/C(=O)NO)=C\[C@@H](C)C(=O)c1ccc(N(C)C)cc1 [Trichostatin A] |  |  | selective expression of nestin | induces cell cycle arrest and differentiation | reduces the overall methylation level of histone H3 | blunts myocardial hypertrophy | inhibited
